Source: US20150004134A1, “TREATMENT OF CANCER WITH HETEROCYCLIC INHIBITORS OF GLUTAMINASE” (Calithera Biosciences, Inc., priority 2012, published 2015)
Like-named read-outs stand apart in the source and are kept apart here.

Legend:
[1] = target: T1, recombinant form of Glutaminase 1 (GAC) (Homo sapiens, UniProt O94925); assay: Recombinant Enzyme Assay - Time Dependence (60 min preincubation); assay type: biochemical
T1 sequence (O94925 137-598 isoform O94925-3 limits assumed): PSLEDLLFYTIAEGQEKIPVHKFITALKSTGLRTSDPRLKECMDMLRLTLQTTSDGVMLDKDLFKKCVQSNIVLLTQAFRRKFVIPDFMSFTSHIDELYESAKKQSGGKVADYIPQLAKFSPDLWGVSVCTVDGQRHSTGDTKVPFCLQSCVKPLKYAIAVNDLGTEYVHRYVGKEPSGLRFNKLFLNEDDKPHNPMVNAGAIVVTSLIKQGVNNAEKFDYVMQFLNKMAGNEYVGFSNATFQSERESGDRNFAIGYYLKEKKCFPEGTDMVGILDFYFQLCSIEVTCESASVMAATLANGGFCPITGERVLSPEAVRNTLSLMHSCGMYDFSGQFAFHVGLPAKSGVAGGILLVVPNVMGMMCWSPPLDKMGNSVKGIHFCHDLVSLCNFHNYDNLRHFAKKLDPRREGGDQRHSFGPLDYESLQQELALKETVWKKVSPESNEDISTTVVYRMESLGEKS
Protocol: The enzyme/compound mix was sealed with sealing foil (USA Scientific) and allowed to incubate, with mild agitation, for 60 minutes at 20° C. Enzymatic reaction was started with the addition of 50 μL of substrate solution (50 mM Tris-HCl pH 8.0, 0.2 mM EDTA, 150 mM K2HPO4, 0.1 mg/ml BSA, 1 mM DTT, 20 mM L-glutamine, 2 mM NAD^+, and 10 ppm antifoam) and read in a Molecular Devices M5 plate reader at 20° C. The plate reader was configured to read absorbance (=340 nm) in kinetic mode for 15 minutes. Data was recorded as milli-absorbance units per minute and slopes were compared to a control compound and a DMSO-only control on the same plate. Compounds with slopes less than the DMSO control were considered inhibitors and plate variability was assessed using the control compound.

P493-6 (myc "on") cells = assay: Cell Proliferation Assay; assay type: cell-based; details: P493-6, 72 h, read-out: Cell prolif P493 72 h IC50, P493-6 cells, 72 h
Procedure, shortened: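 Read-out: either Cell Titer Glo or Guava Viacount flow analysis after 72 h compound treatment of myc-on P493-6 cells (10,000/well, RPMI with 10% FBS) at 37 °C. DMSO held at 0.5% final.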

[2] = read-out: GAC Delta N2 IC50 60 min preinc

SMILES	IC50 [1, 2] [µM]	IC50 (P493-6 (myc "on") cells) [µM]	IC50 [1] [µM]
O=C(O)Cc1cccc(CC(=O)Nc2nnc(CCCCc3ccc(NC(=O)Cc4ccccc4)nn3)s2)c1 [Compound 465]	0.006	0.92	–
NCc1ccccc1CC(=O)Nc1nnc(CCCCc2ccc(NC(=O)Cc3ccccc3)nn2)s1 [Compound 466]	0.051	1.3	–
COc1ccccc1CC(=O)Nc1nnc(CCCCc2ccc(NC(=O)Cc3ccccc3)nn2)s1 [Compound 469]	0.007	0.049	–
CC(C)CNC(=O)Cc1cccc(CC(=O)Nc2nnc(CCCCc3ccc(NC(=O)Cc4ccccc4)nn3)s2)c1 [Compound 470]	0.003	0.009	–
CC(C)(C)CNC(=O)Cc1cccc(CC(=O)Nc2nnc(CCCCc3ccc(NC(=O)Cc4ccccc4)nn3)s2)c1 [Compound 471]	0.003	0.006	–
O=C(Cc1ccccc1)Nc1ccc(CCCCc2nnc(NC(=O)Cc3cccc(CC(=O)N4CCCC4)c3)s2)nn1 [Compound 473]	0.002	0.006	–
O=C(Cc1ccccc1)Nc1ccc(CCCCc2nnc(NC(=O)Cc3cccc(CNC(=O)c4ccc(Br)nn4)c3)s2)nn1 [Compound 475]	0.002	0.003	–
CC1(C)CCN(C(=O)Cc2cccc(CC(=O)Nc3nnc(CCCCc4ccc(NC(=O)Cc5ccccc5)nn4)s3)c2)C1 [Compound 481]	0.004	0.012	–
CC(C)(O)COc1cccc(CC(=O)Nc2nnc(CCCCc3ccc(NC(=O)Cc4ccccc4)nn3)s2)c1 [Compound 482]	0.007	0.038	–
CCCCN(C)C(=O)Cc1cccc(CC(=O)Nc2nnc(CCCCc3ccc(NC(=O)Cc4ccccc4)nn3)s2)c1 [Compound 483]	0.004	0.009	–
CCCN(C)C(=O)Cc1cccc(CC(=O)Nc2nnc(CCCCc3ccc(NC(=O)Cc4ccccc4)nn3)s2)c1 [Compound 484]	0.003	0.011	–
CC(C)CN(C)C(=O)Cc1cccc(CC(=O)Nc2nnc(CCCCc3ccc(NC(=O)Cc4ccccc4)nn3)s2)c1 [Compound 485]	0.004	0.012	–
CCN(C)C(=O)Cc1cccc(CC(=O)Nc2nnc(CCCCc3ccc(NC(=O)Cc4ccccc4)nn3)s2)c1 [Compound 486]	0.004	0.024	–
O=C(Cc1ccccc1)Nc1ccc(CCCCc2nnc(NC(=O)Cc3cccc(CC(=O)N4CCC4)c3)s2)nn1 [Compound 487]	0.005	0.042	–
CCOc1cccc(CC(=O)Nc2nnc(CCCCc3ccc(NC(=O)Cc4ccccc4)nn3)s2)c1 [Compound 488]	0.32	1.9	–
CN1CCN(C(=O)c2cccc(CC(=O)Nc3nnc(CCCCc4ccc(NC(=O)Cc5ccccc5)nn4)s3)c2)CC1 [Compound 490]	0.011	0.25	–
CC(C)(C)NC(=O)Cc1cccc(CC(=O)Nc2nnc(CCCCc3ccc(NC(=O)Cc4ccccc4)nn3)s2)c1 [Compound 495]	0.005	0.014	–
CCCNC(=O)Cc1cccc(CC(=O)Nc2nnc(CCCCc3ccc(NC(=O)Cc4ccccc4)nn3)s2)c1 [Compound 497]	0.004	0.032	–
CC(C)N(C)C(=O)Cc1cccc(CC(=O)Nc2nnc(CCCCc3ccc(NC(=O)Cc4ccccc4)nn3)s2)c1 [Compound 498]	0.003	0.017	–
O=C(Cc1cccs1)Nc1ccc(CCCCc2nnc(NC(=O)Cc3ccccc3)s2)nn1 [Compound 499]	0.01	0.19	–
O=C(Cc1cccc(Cn2cccn2)c1)Nc1ccc(CCCCc2nnc(NC(=O)Cc3ccccc3)s2)nn1 [Compound 500]	0.004	0.029	–
CCOC(=O)Cc1cccc(CC(=O)Nc2ccc(CCCCc3nnc(NC(=O)Cc4ccccc4)s3)nn2)c1 [Compound 501]	0.004	0.069	–
O=C(Cc1cccc(OCCO)c1)Nc1ccc(CCCCc2nnc(NC(=O)Cc3ccccc3)s2)nn1 [Compound 502]	0.007	0.075	–
O=C(Cc1ccccc1)Nc1ccc(CCCCc2nnc(NC(=O)Cc3cccs3)s2)nn1 [Compound 503]	0.008	0.15	–
O=C(Cc1ccccc1)Nc1ccc(CCCCc2nnc(NC(=O)Cc3cccc(OC(CO)CO)c3)s2)nn1 [Compound 505]	0.008	0.24	–
O=C(Cc1ccccc1)Nc1ccc(CCCCc2nnc(NC(=O)Cc3cccc(OC4COC(c5ccccc5)OC4)c3)s2)nn1 (stereo not drawn) [Compound 506]	0.01	0.17	–

SMILES	IC50 [1, 2] [µM]	IC50 (P493-6 (myc "on") cells) [µM]	IC50 [1] [µM]
CC(C)(C)OC(=O)NCc1cccc(CC(=O)Nc2nnc(CCCCc3ccc(NC(=O)C(C)(C)C)nn3)s2)c1 [Compound 510]	0.022	0.094	–
CC(C)(O)Cc1cccc(CC(=O)Nc2nnc(CCCCc3ccc(NC(=O)Cc4ccccc4)nn3)s2)c1 [Compound 513]	–	0.022	0.007
CC(C)(O)CNC(=O)Cc1cccc(CC(=O)Nc2nnc(CCCCc3ccc(NC(=O)Cc4ccccc4)nn3)s2)c1 [Compound 514]	0.009	0.063	–
CCCCNC(=O)Cc1cccc(CC(=O)Nc2ccc(CCCCc3nnc(NC(=O)Cc4ccccc4)s3)nn2)c1 [Compound 516]	–	0.028	0.003
CC(C)CNC(=O)Cc1cccc(CC(=O)Nc2ccc(CCCCc3nnc(NC(=O)Cc4ccccc4)s3)nn2)c1 [Compound 517]	–	0.046	0.003
Cc1nccn1Cc1cccc(CC(=O)Nc2ccc(CCCCc3nnc(NC(=O)Cc4ccccc4)s3)nn2)c1 [Compound 518]	–	0.063	0.004
O=C(Cc1ccccc1)Nc1ccc(CCCCc2nnc(NC(=O)Cc3cccc(OCCCO)c3)s2)nn1 [Compound 519]	0.009	0.059	–
O=C(Cc1ccccc1F)Nc1ccc(CCCCc2nnc(NC(=O)Cc3ccccc3)s2)nn1 [Compound 520]	0.007	0.056	–
O=C(Cc1ccccc1Cl)Nc1ccc(CCCCc2nnc(NC(=O)Cc3ccccc3)s2)nn1 [Compound 521]	0.006	0.052	–
O=C(Cc1ccccc1)Nc1ccc(CCCCc2nnc(NC(=O)Cc3ccccc3Cl)s2)nn1 [Compound 522]	0.023	0.06	–
Cc1ccccc1CC(=O)Nc1nnc(CCCCc2ccc(NC(=O)Cc3ccccc3)nn2)s1 [Compound 523]	0.021	0.055	–
CC(C)(C)OC(=O)NCc1cccc(CC(=O)Nc2nnc(CCCCc3ccc(NC(=O)C(C)(CO)CO)nn3)s2)c1 [Compound 530]	0.055	0.28	–
COc1ccccc1CC(=O)Nc1nnc(CCCCc2ccc(NC(=O)Cc3ccccc3F)nn2)s1 [Compound 532]	0.006	0.059	–
O=C(Cc1ccccc1)Nc1ccc(CCCCc2nnc(NC(=O)Cc3ccc(F)c(O)c3)s2)nn1 [Compound 538]	0.004	0.03	–
O=C(Cc1cccc(OCCCO)c1)Nc1ccc(CCCCc2nnc(NC(=O)Cc3ccccc3)s2)nn1 [Compound 539]	0.009	0.045	–
O=C(Cc1ccccc1)Nc1ccc(CCCCc2nnc(NC(=O)Cc3ccc(F)c(OCCO)c3)s2)nn1 [Compound 540]	0.007	0.05	–
CC(C)(C)NC(=O)Cc1cccc(CC(=O)Nc2ccc(CCCCc3nnc(NC(=O)Cc4ccccc4)s3)nn2)c1 [Compound 542]	0.004	0.043	–
CC(NC(=O)OC(C)(C)C)c1cccc(CC(=O)Nc2ccc(CCCCc3nnc(NC(=O)Cc4ccccc4)s3)nn2)c1 (stereo not drawn) [Compound 543]	0.004	0.005	–
COc1ccc(CC(=O)Nc2nnc(CCCCc3ccc(NC(=O)Cc4ccccc4)nn3)s2)cc1F [Compound 544]	0.006	0.044	–
O=C(Cc1ccccc1)Nc1ccc(CCCCc2nnc(NC(=O)Cc3cccc(C(F)(F)F)c3)s2)nn1 [Compound 546]	0.005	0.027	–
O=C(Cc1ccccc1)Nc1ccc(CCCCc2nnc(NC(=O)Cc3ccc(Cl)c(Cl)c3)s2)nn1 [Compound 548]	0.01	0.085	–
O=C(Cc1ccccc1)Nc1ccc(CCCCc2nnc(NC(=O)Cc3ccc(F)c(Cl)c3)s2)nn1 [Compound 549]	0.006	0.045	–
COc1ccc(CC(=O)Nc2nnc(CCCCc3ccc(NC(=O)Cc4ccccc4)nn3)s2)cc1C [Compound 550]	0.005	0.036	–
CN1CCC(Oc2cccc(CC(=O)Nc3nnc(CCCCc4ccc(NC(=O)Cc5ccccc5)nn4)s3)c2)CC1 [Compound 551]	0.01	0.127	–
COC(=O)NCc1cccc(CC(=O)Nc2ccc(CCCCc3nnc(NC(=O)C(C)c4ccccc4)s3)nn2)c1 (stereo not drawn) [Compound 553]	0.005	0.019	–
